Patent publication US8987309B2, “Compounds, pharmaceutical compositions and methods of use of 2-aryl pyridylazoles” (The Translational Genomics Research Institute, priority 2009, dated 2015)

Legend:
[1] = test system: H460; experiment: IC50 in tumor cell lines (H460); format: cell-based; details: lung tumor cell line H460
Procedure: (§1) Cytotoxicity Assays. Cytotoxicity assays in the mechanism of action studies were performed according to Mosmann (1983), wherein the activity of mitochondrial reductases were measured using 3-(4,5-dimethylthiozol-3-yl)-2,5-diphenyltetrozolium bromide dye. In brief, cells were seeded in 96-well plates and incubated for various times at 37° C. Inhibition of cell growth was measured by adding 3-(4,5-dimethylthiozol-3-yl)-2,5-diphenyltetrozolium bromide dye, and after an additional 4 h of incubation at 37° C., the 96-well plates were centrifuged, and the culture supernatant was removed. DMSO was added to each well to solubilize the formazan crystals, and the optical density was read at 540 nm on a Quant Spectrophotometer (BioTek Instruments, Winooski, Vt.). Cell growth inhibition data are expressed as percentage of survival compared with untreated cells. The IC50 is defined as the drug concentration required to produce 50% growth inhibition. Results are mean S.E.M. (n 3).

[2] = test system: A549; experiment: IC50 in tumor cell lines (A549); format: cell-based; details: lung tumor cell line A549
Procedure: as §1

[3] = test system: OVCAR3; experiment: IC50 in tumor cell lines (OVCAR3); format: cell-based; details: Table 2; ovarian tumor cell line OVCAR3
Procedure: as §1

[4] = test system: MDA231; experiment: IC50 in tumor cell lines (MDA231); format: cell-based; details: Table 2; breast tumor cell line MDA231
Procedure: as §1

[5] = biological target: T1, PDGFRα (Homo sapiens, UniProt P16234); experiment: Initial kinase screening (Amphora), PDGFRα; format: biochemical; details: 10 μM compound
T1 construct: assay run by Amphora Discovery Corporation (Durham, N.C.)
Procedure: Kinase Screening. Initial kinase screening was performed by Amphora Discovery Corporation (Durham, N.C.).

[6] = biological target: T2, IRAK-4 (Homo sapiens, UniProt Q9NWZ3); experiment: Follow-up kinase screening and IC50 (SignalChem), IRAK-4; format: biochemical
T2 construct: assay run by SignalChem Pharmaceuticals, Inc. (Richmond, BC, Canada)

[7] = test system: BxPC3 DPC-4(−/−) cells; experiment: Measurement of cell cycle (PI flow cytometry); format: cell-based, Human; details: 24 to 72 h
Procedure: Measurement of Cell Cycle. The percentage of cells in different cell cycle phases of division was measured by flow cytometry (Darzynkiewicz et al., 1996) using propidium iodide (PI) (Sigma-Aldrich). In brief, cells were treated with PC-046 for 24 to 72 h, fixed with 70% ethanol overnight, and then stained with 40 µg/ml PI and 0.5 mg/ml RNase A for 30 min at 37° C. PI fluorescence was measured on a FACScan (BD Biosciences, San Jose, Calif.) and analyzed using Mod-Fit (Verify Software, Topsham, Me.). Data are mean S.E.M. (n 3).
(§2) Mean±S.E.M., n=3. […] Mean±S.E.M., n=3. […] Mean tumor burden is shown.

[8] = test system: BxPC3 DPC-4(−/−) cells; experiment: Measurement of apoptosis and necrosis (Annexin V/PI); format: cell-based, Human; details: 24 to 72 h, highest concentration 1500 nM
Procedure: Measurement of Apoptosis and Necrosis. Apoptosis and necrosis after DPC-046 treatment was measured at 24 to 72 h by flow cytometry (Vermes et al., 1995) using Annexin V-Alexa Fluor 488 (Invitrogen) and propidium iodide (BioVision, Mountain View, Calif.). Because of the greater photostability of Alexa Fluor 488 over fluorescein isothiocyanate, we substituted Alexa Fluor 488-labeled Annexin V for fluorescein isothiocyanate-labeled Annexin V. Apoptosis was measured by positive Annexin V staining, indicating the translocation of phosphatidylserine on the cell membrane of apoptotic cells, whereas necrosis was measured by dual labeling of Annexin V and propidium iodide of necrotic cells. Unstained cells were deemed alive. Fluorescence of Annexin V-Alexa Fluor 488 and PI was measured on FL1 and FL2, respectively, on a BD Biosciences FACScan using CellQuest Pro software (BD Biosciences). Data are mean S.E.M. (n 3).
as §2

[9] = test system: synthesis of DNA, RNA, or protein; experiment: Measurement of macromolecular synthesis (radiolabeled precursors); format: cell-based
Procedure: Measurement of Macromolecular Synthesis. Radiolabeled precursors of DNA ([^3H]thymidine) and protein ([^14C]valine) were obtained from GE Healthcare (Piscataway, N.J.). The RNA precursor [^3H]uridine was obtained from MP Biomedical (Irvine, Calif.). In brief, cells were plated in 96-well plates and allowed to adhere before adding DPC-046 for 24 to 72 h. Radiolabeled precursors ([…] for thymidine and uridine, and 0.05 µCi/well for valine) were added and allowed to incorporate for 6 h at 37° C. Cells were harvested onto Unifilter-96 GF/B filterplates using a Packard Filtermate 96-well harvester and counted using a Packard Top Count NXT 96-well scintillation counter (PerkinElmer Life and Analytical Sciences, Boston, Mass.).

[10] = Plasma protein binding (rapid equilibrium dialysis), mouse plasma; format: in vitro ADME; details: plasma concentration of 3.27 μM
Procedure: Plasma Protein Binding. Plasma protein binding of DPC-046 was determined in human and mouse plasma using rapid equilibrium dialysis (RED) devices manufactured by Thermo Fisher Scientific. Plasma pH was adjusted to 7.4 and spiked with DPC-046 to a final plasma concentration of 1 μg/ml. Aliquots (500 μl) of the spiked plasma were placed into the sample chamber, and 750 μl of phosphate-buffered saline were placed into the adjacent chamber. Triplicate samples were loaded into the RED devices. The RED devices were incubated at 37° C. on an orbital shaker operating at 100 rpm for 24 h. […] After the incubation, aliquots of plasma and buffer were removed for the analysis of DPC-046 concentration by LC-MS-MS as described above.

[11] = test system: MiaPaCa-2 tumors; experiment: Antitumor efficacy and tolerability, MiaPaCa-2 tumors in SCID mice
Procedure: In Vivo Studies. Six- to 7-week-old male SCID mice were implanted with 10×10^6 MiaPaCa-2 cells in MatriGel (BD Biosciences) subcutaneously in the flank to establish tumors. Once the tumors reached approximately 100 mm^3 and were palpable (approximately 3 weeks later), DPC-046 treatment was initiated. […] Mice were administered vehicle alone or 44, 55, or 66 mg/kg/day DPC-046 intraperitoneally for 5 consecutive days. Tumor size, body weight, and general health of each mouse were recorded every 3rd day for the duration of the study.
FIG. 15 depicts the antitumor efficacy of (D)PC-046 in SCID mice. 10×10^6 MiaPaCa-2 cells in MatriGel were implanted subcutaneously into the flanks of SCID mice. Mice were randomized on day 6 (arrow) and then injected with vehicle alone or 44 or 55 mg/kg/day (D)PC-046 intraperitoneally daily for 5 consecutive days. Mean tumor burden is shown. Mean±S.D. (n=4 or 5). FIG. 16 depicts the AUC of tumor size versus time of MiaPaCa-2 tumors in SCID mice.

[12] = biological target: PIM-1 (Homo sapiens, UniProt P11309); experiment: Follow-up kinase screening and IC50 (SignalChem), PIM-1; format: biochemical; parameters: assay run by SignalChem Pharmaceuticals, Inc. (Richmond, BC, Canada)
[13] = 25 μM DPC-046, follow-up screen
[14] = highest concentration tested (50 μM)
[15] = 66 mg/kg/day i.p., 5 consecutive days, initial dose-ranging study

Sequence of PIM-1 (P11309 whole entry): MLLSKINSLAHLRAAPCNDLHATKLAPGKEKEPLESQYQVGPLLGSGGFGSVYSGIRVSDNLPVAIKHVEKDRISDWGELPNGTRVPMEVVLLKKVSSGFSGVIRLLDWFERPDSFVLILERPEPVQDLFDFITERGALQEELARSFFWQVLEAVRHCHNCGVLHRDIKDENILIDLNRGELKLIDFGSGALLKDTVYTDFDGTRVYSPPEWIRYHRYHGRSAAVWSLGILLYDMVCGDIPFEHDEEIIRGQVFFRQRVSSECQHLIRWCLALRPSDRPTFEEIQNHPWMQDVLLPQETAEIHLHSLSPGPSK
T2 sequence (Q9NWZ3 whole entry): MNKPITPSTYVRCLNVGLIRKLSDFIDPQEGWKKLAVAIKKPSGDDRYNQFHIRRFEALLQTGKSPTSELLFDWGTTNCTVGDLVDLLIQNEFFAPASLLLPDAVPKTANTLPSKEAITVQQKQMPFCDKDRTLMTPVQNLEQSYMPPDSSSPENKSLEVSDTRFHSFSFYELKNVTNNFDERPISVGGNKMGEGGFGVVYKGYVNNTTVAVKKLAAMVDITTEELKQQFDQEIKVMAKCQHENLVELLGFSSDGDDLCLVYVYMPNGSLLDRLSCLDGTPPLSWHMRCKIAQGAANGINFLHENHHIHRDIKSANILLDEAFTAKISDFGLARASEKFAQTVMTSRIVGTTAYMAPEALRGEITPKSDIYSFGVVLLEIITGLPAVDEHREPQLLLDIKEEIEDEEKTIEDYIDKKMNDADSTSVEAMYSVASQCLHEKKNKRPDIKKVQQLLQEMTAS
T1 sequence (P16234 24-1089, species assumed): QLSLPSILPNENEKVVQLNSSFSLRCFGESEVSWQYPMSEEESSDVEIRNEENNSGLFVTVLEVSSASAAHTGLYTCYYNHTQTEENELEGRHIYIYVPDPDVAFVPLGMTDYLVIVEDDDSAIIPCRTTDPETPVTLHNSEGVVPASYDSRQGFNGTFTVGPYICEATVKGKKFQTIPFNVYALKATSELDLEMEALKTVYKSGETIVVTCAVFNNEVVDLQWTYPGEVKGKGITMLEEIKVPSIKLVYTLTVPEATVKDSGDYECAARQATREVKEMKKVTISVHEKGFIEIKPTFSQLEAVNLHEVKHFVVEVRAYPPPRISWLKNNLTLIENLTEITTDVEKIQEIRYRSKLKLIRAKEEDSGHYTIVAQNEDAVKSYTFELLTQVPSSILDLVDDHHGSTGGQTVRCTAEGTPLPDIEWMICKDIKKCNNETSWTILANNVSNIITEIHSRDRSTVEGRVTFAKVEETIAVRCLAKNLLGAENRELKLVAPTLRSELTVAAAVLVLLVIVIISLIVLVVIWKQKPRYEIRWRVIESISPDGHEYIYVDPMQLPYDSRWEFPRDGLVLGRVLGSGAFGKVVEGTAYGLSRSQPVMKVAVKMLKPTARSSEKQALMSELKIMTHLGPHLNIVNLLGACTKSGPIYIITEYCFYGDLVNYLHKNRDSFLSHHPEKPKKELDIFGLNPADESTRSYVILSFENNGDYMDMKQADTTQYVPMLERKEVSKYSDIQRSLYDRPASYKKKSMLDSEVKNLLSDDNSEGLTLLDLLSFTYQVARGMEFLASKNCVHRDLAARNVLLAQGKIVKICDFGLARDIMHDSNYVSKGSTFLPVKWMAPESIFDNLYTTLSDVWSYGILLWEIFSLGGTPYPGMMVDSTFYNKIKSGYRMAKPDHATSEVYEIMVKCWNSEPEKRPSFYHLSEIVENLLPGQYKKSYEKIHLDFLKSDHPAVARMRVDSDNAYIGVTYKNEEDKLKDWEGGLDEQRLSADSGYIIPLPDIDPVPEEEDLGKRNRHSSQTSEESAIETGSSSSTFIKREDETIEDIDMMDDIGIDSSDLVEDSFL

COc1ccc(-c2cnc(-c3ccncc3-c3cccc(OC)c3)o2)cc1 [DPC046]
IC50 ([1]; Table 1): 25 nM
IC50 ([1]; Table 2): 25 nM
IC50 ([2]; Table 1): 22 nM
IC50 ([2]; Table 2): 22 nM
IC50 [3]: 13 nM
IC50 [4]: 17 nM
inhibition of PDGFRα [5]: 46%
inhibition of IRAK-4 [6, 13]: more than 70%
inhibition of IRAK-4 [6, 14]: 92%
effect on cell cycle phases (in words) ([7]; listed as (D)PC-046): block in the S and G2/M-phases
effect on cell cycle phases (in words) ([7]; listed as DPC-046): reduction in the percentage of G0/G1-phase cells and a commensurate increase in G2/M-phase cells
mechanism of cell death (in words) ([8]; listed as (D)PC-046): both early apoptotic and necrotic cell death
mechanism of cell death (in words) ([8]; listed as DPC-046): cell death by a combination of apoptosis and necrosis
selectivity of inhibition of DNA, RNA or protein synthesis (in words) ([9]; 24 to 72 h): no selective inhibition
IC50 ([9]; DNA, RNA, protein, average, at 72 h, read-out: IC50 for inhibition of synthesis of each macromolecule): ~3000 nM
bound to plasma proteins [10]: 91%
antitumor efficacy (in words) ([11]; 44 mg/kg/day daily for 5 days): not effective
average loss of body weight ([11]; 55 mg/kg/day group, while receiving injections, recovered by end of study): 15.8%
area under the tumor size X time curve vs controls (in words) ([11]; 55 mg/kg/day group, p=0.014): statistically significant reduction
weight loss ([11]; 55 mg/kg/day, daily for 5 days, initial study): 10%
MiaPaCa-2 tumor growth vs untreated controls (in words) ([11]; 55 mg/kg/day, daily for 5 days, preliminary data not shown): reduced MiaPaCa-2 tumor growth
tolerability (in words) ([11]; 66 mg/kg/day i.p., 5 consecutive days): not tolerated
death [11, 15]: 60%
weight loss [11, 15]: −15%
MiaPaCa-2 tumor growth vs untreated group (in words) ([11]; experiment comparing 44 or 55 mg/kg/day daily for 5 days): significant inhibition of MiaPaCa-2 tumor growth
inhibition of PIM-1 [12, 13]: more than 70%
IC50 ([12]; eight-point concentration range 10 nM to 50 μM): 19100 nM
inhibition of PIM-1 [12, 14]: 84%
